{"source": "paper PMC10647704", "about": "(Molecules, 2023)", "key": {"[1]": {"system": "C. albicans S2 (FLU-resistant)", "assay": "microbe, parasite or virus in culture", "type": "cell-based"}, "[2]": {"system": "C. albicans S2 (FLU-resistant)", "assay": "microbe, parasite or virus in culture", "type": "cell-based", "details": "read-out: MIC, colorimetric assay"}, "[3]": {"details": "Candida albicans, 24 h, read-out: MIC, turbidity assay"}, "[4]": {"details": "Candida albicans, 48 h, read-out: MIC, turbidity assay"}, "[5]": {"details": "Candida albicans, 48 h, read-out: Turbidity Assay IC50 C. albicans S2"}}, "note": "Like-named read-outs stand apart in the source and are kept apart here.", "data": [{"smiles": "CC1(C)C2CCC(Cn3[se]c4ccccc4c3=O)C1C2", "note": "(single isomer, unassigned; (-)) [CHB3]", "values": [{"measurement": "MIC", "setting": "[1]; [3]", "result": 50, "unit": "µM"}, {"measurement": "MIC", "setting": "[1]; [4]", "result": 25, "unit": "µM"}, {"measurement": "IC50", "setting": "[1]; [5]", "result": "15.1 ± 0.2", "unit": "µM"}, {"measurement": "MIC", "setting": "[2]; Candida albicans, 24 h", "result": 25, "unit": "µM"}, {"measurement": "MIC", "setting": "[2]; Candida albicans, 48 h", "result": 25, "unit": "µM"}]}, {"smiles": "C[C@@H]1C[C@H]2[C@@H](C[C@H]1n1[se]c3ccccc3c1=O)C2(C)C", "note": "[CHB5]", "values": [{"measurement": "IC50", "setting": "[1]; [5]", "result": "14.4 ± 0.5", "unit": "µM"}]}, {"smiles": "C[C@H]1CC[C@@H]2[C@H]([C@@H]1n1[se]c3ccccc3c1=O)C2(C)C", "note": "[CHB4]", "values": [{"measurement": "MIC", "setting": "[1]; [3]", "result": 3.1, "unit": "µM"}, {"measurement": "MIC", "setting": "[1]; [4]", "result": 3.1, "unit": "µM"}, {"measurement": "IC50", "setting": "[1]; [5]", "result": "1.8 ± 0.1", "unit": "µM"}, {"measurement": "MIC", "setting": "[2]; Candida albicans, 24 h", "result": 3.1, "unit": "µM"}, {"measurement": "MIC", "setting": "[2]; Candida albicans, 48 h", "result": 3.1, "unit": "µM"}]}, {"smiles": "C[C@@H]1[C@@H](n2[se]c3ccccc3c2=O)C[C@H]2C[C@@H]1C2(C)C", "note": "[CHB1]", "values": [{"measurement": "MIC", "setting": "[1]; [3]", "result": 3.1, "unit": "µM"}, {"measurement": "MIC", "setting": "[1]; [4]", "result": 3.1, "unit": "µM"}, {"measurement": "IC50", "setting": "[1]; [5]", "result": "1.8 ± 0.1", "unit": "µM"}]}, {"smiles": "O=c1c2ccccc2[se]n1-c1ccccc1", "note": "[EB, Ebselen, reference compound]", "values": [{"measurement": "IC50", "setting": "[1]; Abs600nm at 48 h; read-out: Turbidity Assay IC50 C. albicans S2", "result": "14.3 ± 0.46", "unit": "µM"}, {"measurement": "MIC", "setting": "[1]; C. albicans S2, 24 h; for FLU the lowest concentration causing 70% decrease in turbidity; read-out: MIC, turbidity assay", "result": 25.0, "unit": "µM"}, {"measurement": "MIC", "setting": "[1]; C. albicans S2, 48 h; for FLU the lowest concentration causing 70% decrease in turbidity; read-out: MIC, turbidity assay", "result": 25.0, "unit": "µM"}, {"measurement": "MIC", "setting": "[1]; Candida albicans, 24 h; read-out: MIC, turbidity assay", "result": 25, "unit": "µM"}, {"measurement": "IC50", "setting": "[1]; Candida albicans, 48 h, Abs600nm at 48 h; read-out: Turbidity Assay IC50 C. albicans S2", "result": "~14", "unit": "µM"}, {"measurement": "MIC", "setting": "[1]; Candida albicans, 48 h; read-out: MIC, turbidity assay", "result": 25, "unit": "µM"}, {"measurement": "MIC", "setting": "[2]; C. albicans S2, 24 h, resazurin", "result": 25.0, "unit": "µM"}, {"measurement": "MIC", "setting": "[2]; C. albicans S2, 48 h, resazurin", "result": 25.0, "unit": "µM"}, {"measurement": "MIC", "setting": "[2]; Candida albicans, C. albicans S2, 24 h, resazurin", "result": 25, "unit": "µM"}, {"measurement": "MIC", "setting": "[2]; Candida albicans, C. albicans S2, 48 h, resazurin", "result": 25, "unit": "µM"}]}, {"smiles": "CC(C)[C@@H]1CC[C@@H](C)C[C@H]1n1[se]c2ccccc2c1=O", "note": "[CHB6, (−)-N-(1R,2S,5R)-menthyl-1,2-benzizoselenazol-3(2H)-one]", "values": [{"measurement": "MIC", "setting": "[1]; [3]", "result": 3.1, "unit": "µM"}, {"measurement": "MIC", "setting": "[1]; [4]", "result": 3.1, "unit": "µM"}, {"measurement": "IC50", "setting": "[1]; [5]", "result": "1.8 ± 0.1", "unit": "µM"}, {"measurement": "MIC", "setting": "[2]; Candida albicans, 24 h", "result": 6.3, "unit": "µM"}, {"measurement": "MIC", "setting": "[2]; Candida albicans, 48 h", "result": 6.3, "unit": "µM"}]}, {"smiles": "C[C@H]1[C@H](n2[se]c3ccccc3c2=O)C[C@@H]2C[C@H]1C2(C)C", "note": "[CHB2]", "values": [{"measurement": "IC50", "setting": "[1]; [5]", "result": "6.2 ± 0.1", "unit": "µM"}, {"measurement": "MIC", "setting": "[2]; Candida albicans, 24 h", "result": 6.3, "unit": "µM"}, {"measurement": "MIC", "setting": "[2]; Candida albicans, 48 h", "result": 3.1, "unit": "µM"}]}]}
